Experimental data published in the NIST ThermoML archive (doi:10.1021/je060271a).
Numbers after ± are expanded uncertainties.

Settings: 303.14 K, Liquid, Vibrating tube method

CCCCCCC(=O)OCC(COC(=O)CCCCCC)(COC(=O)CCCCCC)COC(=O)CCCCCC [pentaerythritol tetraheptanoate]
Settings | mass density [kg/m3]
8357.2 kPa | 975.8 ± 1.2
8381 kPa | 975.9 ± 1.2
8405.1 kPa | 976 ± 1.2
8433.4 kPa | 976 ± 1.2
8458.1 kPa | 975.9 ± 1.2
8483.1 kPa | 976.1 ± 1.2
8509.4 kPa | 976 ± 1.2
8533.9 kPa | 976.1 ± 1.2
8563.4 kPa | 976 ± 1.2
8587.9 kPa | 976.2 ± 1.2
8617.9 kPa | 976 ± 1.2
8643.4 kPa | 976.1 ± 1.2
8668.9 kPa | 976.1 ± 1.2
8700 kPa | 976.2 ± 1.2
8725.8 kPa | 976.1 ± 1.2
8751.7 kPa | 976.1 ± 1.2
8777.7 kPa | 976.2 ± 1.2
8810 kPa | 976.2 ± 1.2
8838.3 kPa | 976.2 ± 1.2
8865.8 kPa | 976.3 ± 1.2
8892.5 kPa | 976.1 ± 1.2
8925.3 kPa | 976.3 ± 1.2
8952.3 kPa | 976.3 ± 1.2
8979 kPa | 976.3 ± 1.2
9006.6 kPa | 976.4 ± 1.2
9039.6 kPa | 976.3 ± 1.2
9067.1 kPa | 976.3 ± 1.2
9100.6 kPa | 976.4 ± 1.2
9129 kPa | 976.4 ± 1.2
9157.8 kPa | 976.5 ± 1.2
9191.8 kPa | 976.5 ± 1.2
9221.4 kPa | 976.5 ± 1.2
9250.2 kPa | 976.4 ± 1.2
9279.1 kPa | 976.4 ± 1.2
9315 kPa | 976.4 ± 1.2
9344.1 kPa | 976.6 ± 1.2
9374.1 kPa | 976.5 ± 1.2
9409.9 kPa | 976.5 ± 1.2
9439.9 kPa | 976.6 ± 1.2
9476.4 kPa | 976.6 ± 1.2
9507.3 kPa | 976.7 ± 1.2
9537.9 kPa | 976.6 ± 1.2
9575 kPa | 976.6 ± 1.2
9606.3 kPa | 976.8 ± 1.2
9638.6 kPa | 976.8 ± 1.2
9670.4 kPa | 976.7 ± 1.2
9708.9 kPa | 976.7 ± 1.2
9741.1 kPa | 976.9 ± 1.2
9780.3 kPa | 976.8 ± 1.2
9813.2 kPa | 976.9 ± 1.2
9846 kPa | 976.7 ± 1.2
9879 kPa | 976.9 ± 1.2
9918.8 kPa | 976.9 ± 1.2
9952.1 kPa | 976.9 ± 1.2
9992 kPa | 977 ± 1.2
10026 kPa | 976.8 ± 1.2
10061 kPa | 976.9 ± 1.2
10103 kPa | 977.1 ± 1.2
10139 kPa | 977 ± 1.2
10174 kPa | 977 ± 1.2
10209 kPa | 977.2 ± 1.2
10252 kPa | 977.1 ± 1.2
10288 kPa | 977 ± 1.2
10325 kPa | 977.2 ± 1.2
10369 kPa | 977.2 ± 1.2
10405 kPa | 977.1 ± 1.2
10449 kPa | 977.2 ± 1.2
10486 kPa | 977.2 ± 1.2
10525 kPa | 977.2 ± 1.2
10571 kPa | 977.3 ± 1.2
10610 kPa | 977.3 ± 1.2
10649 kPa | 977.3 ± 1.2
10688 kPa | 977.4 ± 1.2
10736 kPa | 977.4 ± 1.2
10775 kPa | 977.3 ± 1.2
10823 kPa | 977.4 ± 1.2
10864 kPa | 977.4 ± 1.2
10906 kPa | 977.6 ± 1.2
10949 kPa | 977.4 ± 1.2
11001 kPa | 977.6 ± 1.2
11045 kPa | 977.5 ± 1.2
11086 kPa | 977.5 ± 1.2
11124 kPa | 977.6 ± 1.2
11150 kPa | 977.6 ± 1.2
11180 kPa | 977.6 ± 1.2
11206 kPa | 977.7 ± 1.2
11232 kPa | 977.6 ± 1.2
11290 kPa | 977.6 ± 1.2
11316 kPa | 977.6 ± 1.2
11343 kPa | 977.8 ± 1.2
11375 kPa | 977.6 ± 1.2
11402 kPa | 977.7 ± 1.2
11490 kPa | 977.7 ± 1.2
11519 kPa | 977.9 ± 1.2
11574 kPa | 977.9 ± 1.2
11609 kPa | 978 ± 1.2
11637 kPa | 977.8 ± 1.2
11668 kPa | 977.9 ± 1.2
11691 kPa | 977.8 ± 1.2
11715 kPa | 977.9 ± 1.2
11767 kPa | 978.1 ± 1.2
11791 kPa | 978 ± 1.2
11816 kPa | 978 ± 1.2
11847 kPa | 978 ± 1.2
11871 kPa | 977.9 ± 1.2
11896 kPa | 978.1 ± 1.2
11920 kPa | 978.1 ± 1.2
11950 kPa | 978 ± 1.2
11975 kPa | 978.1 ± 1.2
12000 kPa | 978.2 ± 1.2
12031 kPa | 978.2 ± 1.2
12057 kPa | 978 ± 1.2
